Results taken from patent US20260138961A1, “MODULATORS OF MITOCHONDRIAL DNA REPLICATION” (Pretzel Therapeutics, Inc., priority 2022, published 2026).

molecular target: T1, POLγA:A467T (Homo sapiens, UniProt P54098, A467T); experiment: DNA polymerization assay, POLγA:A467T mutant; type: biochemical; details: stimulation of polymerase activity, primed M13mp18 ssDNA, 37° C. 2 hours; read-out: A467T AC50
T1 sequence (P54098 1-1239 A467T): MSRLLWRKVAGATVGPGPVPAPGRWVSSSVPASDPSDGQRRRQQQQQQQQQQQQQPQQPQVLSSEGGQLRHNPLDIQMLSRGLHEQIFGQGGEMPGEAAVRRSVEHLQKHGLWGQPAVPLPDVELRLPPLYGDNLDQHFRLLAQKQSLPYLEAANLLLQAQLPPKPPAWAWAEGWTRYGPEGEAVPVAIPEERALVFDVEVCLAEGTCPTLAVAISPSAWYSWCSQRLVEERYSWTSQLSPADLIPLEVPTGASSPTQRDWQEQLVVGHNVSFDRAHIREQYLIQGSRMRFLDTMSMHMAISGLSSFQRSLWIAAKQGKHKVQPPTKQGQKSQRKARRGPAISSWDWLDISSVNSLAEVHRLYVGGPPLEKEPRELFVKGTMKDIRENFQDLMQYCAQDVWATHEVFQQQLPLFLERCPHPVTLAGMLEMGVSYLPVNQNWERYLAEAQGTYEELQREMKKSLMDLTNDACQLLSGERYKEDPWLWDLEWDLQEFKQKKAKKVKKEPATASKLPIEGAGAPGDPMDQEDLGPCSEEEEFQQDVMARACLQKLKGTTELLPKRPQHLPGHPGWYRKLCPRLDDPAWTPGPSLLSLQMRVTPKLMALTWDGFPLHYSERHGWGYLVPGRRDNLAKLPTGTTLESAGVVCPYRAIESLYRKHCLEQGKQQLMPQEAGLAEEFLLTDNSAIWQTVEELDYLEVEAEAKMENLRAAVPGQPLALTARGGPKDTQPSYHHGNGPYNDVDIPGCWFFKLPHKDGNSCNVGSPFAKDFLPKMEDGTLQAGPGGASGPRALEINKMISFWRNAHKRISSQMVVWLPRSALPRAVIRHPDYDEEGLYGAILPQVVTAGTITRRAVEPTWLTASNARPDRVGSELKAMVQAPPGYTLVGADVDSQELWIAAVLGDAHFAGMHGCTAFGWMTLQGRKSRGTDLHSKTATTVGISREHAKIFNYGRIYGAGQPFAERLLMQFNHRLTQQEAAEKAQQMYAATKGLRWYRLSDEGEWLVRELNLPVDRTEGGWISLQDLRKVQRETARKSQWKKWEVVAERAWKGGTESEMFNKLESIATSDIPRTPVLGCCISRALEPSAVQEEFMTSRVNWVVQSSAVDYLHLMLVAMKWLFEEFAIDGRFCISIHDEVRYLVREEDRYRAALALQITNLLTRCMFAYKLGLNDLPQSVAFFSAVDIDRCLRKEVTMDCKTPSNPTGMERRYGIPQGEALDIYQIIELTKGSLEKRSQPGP
T1 sequence (Q9UHN1 1-485 partner): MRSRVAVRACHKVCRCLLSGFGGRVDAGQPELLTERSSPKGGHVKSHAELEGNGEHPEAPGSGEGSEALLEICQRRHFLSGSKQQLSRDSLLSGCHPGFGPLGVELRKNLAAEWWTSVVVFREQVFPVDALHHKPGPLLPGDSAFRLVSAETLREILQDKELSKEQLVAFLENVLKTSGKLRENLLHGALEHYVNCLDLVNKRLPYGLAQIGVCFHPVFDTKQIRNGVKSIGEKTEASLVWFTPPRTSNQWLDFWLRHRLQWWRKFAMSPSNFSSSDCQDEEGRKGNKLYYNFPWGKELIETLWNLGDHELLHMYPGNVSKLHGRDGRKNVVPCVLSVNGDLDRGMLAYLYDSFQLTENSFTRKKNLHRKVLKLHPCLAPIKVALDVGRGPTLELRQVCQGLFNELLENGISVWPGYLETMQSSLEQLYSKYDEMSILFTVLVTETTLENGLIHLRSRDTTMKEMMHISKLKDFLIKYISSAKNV

| AC50 [µM] | SMILES |
| --- | --- |
| > 100 | Cc1cc(S(=O)(=O)Nc2cccc(C(=O)N(C)C(C)CO)c2)c(C)cc1Cl (single isomer, unassigned) [Example 15, 3-((4-chloro-2,5-dimethylphenyl)sulfonamido)-N-(1-hydroxypropan-2-yl)-N-methylbenzamide] |
| 4 | Cc1csc(-c2cccc(NS(=O)(=O)c3cc(C)c(Cl)cc3C)c2)n1 [Example 20, 4-chloro-2,5-dimethyl-N-(3-(4-methylthiazol-2-yl)phenyl)benzenesulfonamide] |
| 3 | Cc1cnc(-c2cccc(NS(=O)(=O)c3cc(C)c(Cl)cc3C)c2)s1 [Example 21, 4-chloro-2,5-dimethyl-N-(3-(5-methylthiazol-2-yl)phenyl)benzenesulfonamide] |
| > 100 | Cc1cc(S(=O)(=O)N(C)c2cccc(-c3nccs3)c2)c(C)cc1Cl [Example 22, 4-chloro-N,2,5-trimethyl-N-(3-(thiazol-2-yl)phenyl)benzenesulfonamide] |
| > 100 | Cc1ccccc1S(=O)(=O)Nc1cccc(C(=O)N2CCOC[C@@H]2C)c1 [Example 23, (S)-2-methyl-N-(3-(3-methylmorpholine-4-carbonyl)phenyl)benzenesulfonamide] |
| > 100 | Cc1ccc(C)c(S(=O)(=O)Nc2cccc(C(=O)N3CCSCC3)c2)c1 [Example 24, 2,5-dimethyl-N-(3-(thiomorpholine-4-carbonyl)phenyl)benzenesulfonamide] |
| > 100 | Cc1ccc(C)c(S(=O)(=O)Nc2cccc(C(=O)N(C)C)c2)c1 [Example 25, 3-((2,5-dimethylphenyl)sulfonamido)-N,N-dimethylbenzamide] |
| > 100 | Cc1ccc(C)c(S(=O)(=O)Nc2cccc(C(=O)N(C)Cc3ccccc3)c2)c1 [Example 26, N-benzyl-3-((2,5-dimethylphenyl)sulfonamido)-N-methylbenzamide] |
| > 100 | Cc1ccc(C)c(S(=O)(=O)Nc2cccc(C(N)=O)c2)c1 [Example 27, 3-((2,5-dimethylphenyl)sulfonamido)benzamide] |
| > 100 | Cc1ccc(C)c(S(=O)(=O)Nc2cccc(C(=O)NCc3ccccc3)c2)c1 [Example 28, N-benzyl-3-((2,5-dimethylphenyl)sulfonamido)benzamide] |
| > 100 | Cc1ccc(C)c(S(=O)(=O)Nc2cccc(C(=O)N3CCOCC3)c2)c1 [Example 29, 2,5-dimethyl-N-(3-(morpholine-4-carbonyl)phenyl)benzenesulfonamide] |
| > 100 | CC(=O)N1CCN(C(=O)c2cccc(NS(=O)(=O)c3cc(C)ccc3C)c2)CC1 [Example 30, N-(3-(4-acetylpiperazine-1-carbonyl)phenyl)-2,5-dimethylbenzenesulfonamide] |
| > 100 | Cc1ccc(C)c(S(=O)(=O)Nc2cccc(C(=O)N3CCN(C)CC3)c2)c1 [Example 31, 2,5-dimethyl-N-(3-(4-methylpiperazine-1-carbonyl)phenyl)benzenesulfonamide] |
| > 100 | Cc1ccc(C)c(S(=O)(=O)Nc2cccc(C(=O)N3CCCCCC3)c2)c1 [Example 32, N-(3-(azepane-1-carbonyl)phenyl)-2,5-dimethylbenzenesulfonamide] |
| > 100 | Cc1ccc(C)c(S(=O)(=O)Nc2cccc(C(=O)N(C)CC3CC3)c2)c1 [Example 33, N-(cyclopropylmethyl)-3-((2,5-dimethylphenyl)sulfonamido)-N-methylbenzamide] |
| > 100 | COc1ccc(S(=O)(=O)Nc2cccc(C(=O)N3CCSCC3C#N)c2)cc1 (centres unmarked) [Example 34, N-(3-(3-cyanothiomorpholine-4-carbonyl)phenyl)-4-methoxybenzenesulfonamide] |

| AC50 [µM] | SMILES |
| --- | --- |
| > 100 | N#CC1CSCCN1C(=O)c1cccc(NS(=O)(=O)c2cccc(C(F)(F)F)c2)c1 (centres unmarked) [Example 35, N-(3-(3-cyanothiomorpholine-4-carbonyl)phenyl)-3-(trifluoromethyl)benzenesulfonamide] |
| > 100 | Cc1cc(S(=O)(=O)Nc2cccc3c2CC(=O)N3)c(C)cc1Cl [Example 36, 4-chloro-2,5-dimethyl-N-(2-oxoindolin-4-yl)benzenesulfonamide] |
| > 100 | Cc1cc2c(NS(=O)(=O)c3cc(C)c(Cl)cc3C)cccc2[nH]1 [Example 37, 4-chloro-2,5-dimethyl-N-(2-methyl-1H-indol-4-yl)benzenesulfonamide] |
| > 100 | Cc1ccc(C)c(S(=O)(=O)Nc2cncc(C(=O)N3CCOCC3)c2)c1 [Example 38, 2,5-dimethyl-N-(5-(morpholine-4-carbonyl)pyridin-3-yl)benzenesulfonamide] |
| > 100 | Cc1ccc(C)c(S(=O)(=O)Nc2ccc(C(=O)N[C@@H](C)C3CC3)cc2)c1 [Example 39, (S)-N-(1-cyclopropylethyl)-4-((2,5-dimethylphenyl)sulfonamido)benzamide] |
| > 100 | Cc1ccc(C)c(S(=O)(=O)Nc2ccc(C(=O)NCC3CC3)cc2)c1 [Example 40, N-(cyclopropylmethyl)-4-((2,5-dimethylphenyl)sulfonamido)benzamide] |
| > 100 | Cc1ccc(C)c(S(=O)(=O)Nc2cccc(C(=O)N3CCSCC3C(N)=O)c2)c1 (centres unmarked) [Example 41, 4-(3-((2,5-dimethylphenyl)sulfonamido)benzoyl) thiomorpholine-3-carboxamide] |
| > 100 | Cc1cc(NS(=O)(=O)c2cc(C)ccc2C)cc(C(=O)N2CCCC[C@H]2C)c1 [Example 42, (R)-2,5-dimethyl-N-(3-methyl-5-(2-methylpiperidine-1-carbonyl)phenyl)benzenesulfonamide] |
| > 100 | Cc1ccc(C)c(S(=O)(=O)Nc2ccc(C(=O)N3CCCC[C@H]3C)s2)c1 [Example 43, (R)-2,5-dimethyl-N-(5-(2-methylpiperidine-1-carbonyl)thiopheN-2-yl)benzenesulfonamide] |
| > 100 | Cc1cc(S(=O)(=O)Nc2cccc(C(N)=O)c2)c(C)cc1Cl [Example 44, 3-((4-chloro-2,5-dimethylphenyl)sulfonamido)benzamide] |
| > 100 | Cc1cc(S(=O)(=O)Nc2cccc(C(=O)N3CCNCC3)c2)c(C)cc1Cl [Example 46, 4-chloro-2,5-dimethyl-N-(3-(piperazine-1-carbonyl)phenyl)benzenesulfonamide] |
| > 100 | COCCNC(=O)c1cccc(NS(=O)(=O)c2cc(C)c(Cl)cc2C)c1 [Example 47, 3-((4-chloro-2,5-dimethylphenyl)sulfonamido)-N-(2-methoxyethyl)benzamide] |
| > 100 | Cc1cc(S(=O)(=O)Nc2cccc(C(=O)N[C@H](C)c3ccccc3)c2)c(C)cc1Cl [Example 48, (R)-3-((4-chloro-2,5-dimethylphenyl)sulfonamido)-N-(1-phenylethyl)benzamide] |
| > 100 | Cc1cc(S(=O)(=O)Nc2ccc(F)c(C(=O)N3CCC[C@H]3C)c2)c(C)cc1Cl [Example 49, (R)-4-chloro-N-(4-fluoro-3-(2-methylpyrrolidine-1-carbonyl)phenyl)-2,5-dimethylbenzenesulfonamide] |
| > 100 | Cc1cc(S(=O)(=O)Nc2cc(C(=O)N3CCC[C@H]3C)ccc2F)c(C)cc1Cl [Example 50, (R)-4-chloro-N-(2-fluoro-5-(2-methylpyrrolidine-1-carbonyl)phenyl)-2,5-dimethylbenzenesulfonamide] |
| > 100 | Cc1cc(S(=O)(=O)Nc2cccc(C(=O)N[C@H](C)CO)c2)c(C)cc1Cl [Example 51, (R)-3-((4-chloro-2,5-dimethylphenyl)sulfonamido)-N-(1-hydroxypropan-2-yl)benzamide] |
